Values of other authors, collected in patent US8658200B2, “Flavoring of drug-containing chewing gums” (McNeil-PPC, Inc., priority 2005, dated 2014).

Tested on: adult

CN1CCCC1c1cccnc1 (stereo not shown) [nicotine, 3-(1-methyl-2-pyrrolidinyl)-pyridine]
amount of nicotine able to kill an adult: Approximately 40 milligrams
